Laboratory results from patent publication US20240197700A1, “Methods and Compositions for Treating Lysosomal Storage Disorders” (Sanford Health, priority 2021, published 2024).
Entries after “also recorded” stand apart in the source; their conditions may differ.

How the values were obtained:
TFE3 = TFE3 nuclear translocation time course in transfected N2A cells; format: cell-based, mouse; details: for TFE3 nuclear translocation (i.e., activation): overall statement, GFP-TFE3 transfected N2A cells, acute treatment
Procedure: Treatment with AF38469 stimulates TFE3 nuclear translocation as monitored via time course study. For (A) and (B), wild type N2A cells were plated and transfected with a pEGFP-N1-TFE3 plasmid for a 24-hour incubation. Cells were treated with vehicle or AF38469 (40 nM, 400 nM) for three hours then immunocytochemistry was performed with anti-GFP (Abcam, ab13970) and 4′, -diamidino-2-phenylindole-dihydrochloride (DAPI). Cells were imaged on the Nikon AIR confocal microscope. For (C), wild type N2A cells were plated and transfected with a pEGFP-N1-TFE3 plasmid for a 24-hour incubation. Cells were dyed and imaged on the CellInsight™ CX7 High-Content Screening Platform (CX7) then treated with media containing vehicle or AF38469 (40 nM, 400 nM). Cells were imaged every 30 minutes for three hours on the CX7 with incubation between imaging sessions, and results were quantified. The statistics were analyzed using Graphpad Prism™. One-way ANOVA. Mean±S.E.M. Dunnett's multiple comparisons test compared to the vehicle treated group. *p<0.05, **p<0.01, ***p<0.001, ****p<0.0001. […] TFEB is a transcription factor that stimulates transcription of genes that are necessary for lysosomal biogenesis and function. Thus, increased TFE3 nuclear translocation is expected to stimulate lysosomal biogenesis and function.
Since LM11A-31 improves lysosomal health and function across diverse cell models of lysosomal storage disorders, we asked whether the drug could be activating transcriptional networks that regulate lysosomal function. The transcription factors TFEB and TFE3 are master regulators of lysosomal biogenesis and function. We hypothesized that LM11A-31 could exert benefits by modulating the nuclear translocation of TFEB and/or TFE3. We tested this in an in vitro system in which GFP fusions of TFEB or TFE3 are expressed and monitored with live imaging (FIG. 15A).

Cln3^Δex7/8 mice = assay: Autofluorescent storage material (ASM) in brain of Cln3^Δex7/8 mice; format: in vivo, mouse; details: 16 weeks; for auto florescent storage material: LM11A-31 0.6 mg/mL in drinking water
Procedure: FIG. 16. Effects of treatment with LM11A-31 on auto florescent storage material. […] Upon sacrifice, one hemisphere of brain was sectioned at 50 microns on a vibratome; DAB staining immunohistochemistry was then performed using anti-GFAP (Dako, Z0334; 1:5000), anti-CD68 (AbD Serotec, MCA1957; 1:2000), anti-rabbit biotinylated (Vector Labs. BA-1000 1:1000), and anti-rat (Vector Labs, BA-9400 1:1000). Sections were imaged and analyzed using an Aperio Digital Pathology Slide Scanner (AT2) and associated software. The flash-frozen brain was sectioned into 16 μm slices and placed on slides. Slides were post-fixed for 20 minutes in chilled 10% neutral buffered formalin (NBF) and underwent serial ethanol dehydration. To quantify accumulation of autofluorescent storage material, DAPI was applied to slides and coverslipped with aqueous mounting media (Dako Faramount, Agilent, S302580-2). Sections were imaged using a Nikon NiE microscope and associated software. […] Nested one-way ANOVA. Mean±S.E.M. Sidak's multiple comparisons test. Compared to the wild type vehicle treated group. #p<0.05, ##p<0.01, ###p<0.001, ####p<0.0001. Compared to mutant vehicle treated group. *p<0.05, **p<0.01, ***p<0.001, ****p<0.0001. Scale bar=100 μm.
Since LM11A-31 reduced lysosomal pathology and increased lysosomal function in cell models of diverse lysosomal storage disorders, we asked whether treatment with LM11A-31 could reduce histopathological markers of disease severity in animal models of CLN3-Batten disease. […] Sections were imaged and analyzed using an Aperio Digital Pathology Slide Scanner (AT2) and associated software. […] To quantify accumulation of autofluorescent storage material, DAPI was applied to slides and coverslipped with aqueous mounting media (Dako Faramount, Agilent, S302580-2). […]
Specific experimental details are included in figure legends. […] Body weight was measured at 4, 6, 8, 12, and 16 weeks of age. […]

| Compound | TFE3 nuclear translocation (TFE3; 40 nM and 400 nM, 90 minutes of incubation, N2A cells, vs vehicle) | TFE3 nuclear translocation (TFE3; 40 nM, 180 minutes of incubation, N2A cells) | TFE3 nuclear translocation (TFE3; 400 nM, 180 minutes of incubation, N2A cells) | TFE3 nuclear translocation (i.e., activation) (TFE3) | accumulation of autofluorescent storage material (ASM) (Cln3^Δex7/8 mice; semaglutide 2.571 μg/mouse, 25.71 μg/mouse s.c. three times a week, S1BF, CA3, VPM/VPL) | TFE3 nuclear translocation (TFE3; 100 nM and 1 μM, 90 minutes of incubation) | auto florescent storage material (Cln3^Δex7/8 mice; S1BF, CA3, or motor cortex) | auto florescent storage material (Cln3^Δex7/8 mice; VPM/VPL and visual cortex) |
| --- | --- | --- | --- | --- | --- | --- | --- | --- |
| Cc1cccc(NC(=O)c2ccc(C(F)(F)F)cc2C(=O)O)n1 [AF38469, 2-((6-methylpyridin-2-yl)carbamoyl)-5-(trifluoromethyl)benzoic acid] | significant increase | return to baseline | trend towards increased nuclear translocation | stimulates |  |  |  |  |
| semaglutide |  |  |  |  | had no significant effect |  |  |  |
| CC[C@H](C)[C@H](N)C(=O)NCCN1CCOCC1 [LM11A-31, N-[2-(morpholin-4-yl)ethyl]-L-isoleucinamide] |  |  |  | stimulated |  | significant increase | did not decrease | reduced ASM to levels that were not statistically distinguishable from wild type; also recorded: slight decrease |
